{
  "source": "ChEMBL document CHEMBL1629642",
  "about": "“In vitro efficacy of ST246 against smallpox and monkeypox” (Antimicrob Agents Chemother, 2009)",
  "key": {"[1]": {"tested_on": "Variola virus", "assay": "Antiviral activity against Variola virus SLN68-258 infected in african green monkey BSC-40 cells at 0.05 to 0.5 uM by IHC staining-based plaque reduction assay", "type": "functional, organism-based"}, "[2]": {"tested_on": "Monkeypox virus", "assay": "Antiviral activity against Monkeypox virus V1979-I-005 infected in african green monkey BSC-40 cells assessed as reduction in virus-induced cytopathic effect at 0.005 uM", "type": "functional, organism-based"}, "[3]": {"tested_on": "Variola virus", "assay": "Antiviral activity against Variola virus SUD47-juba infected in african green monkey BSC-40 cells at 0.05 to 0.5 uM by IHC staining-based comet tail reduction assay", "type": "functional, organism-based"}, "[4]": {"tested_on": "Monkeypox virus", "assay": "Antiviral activity against Monkeypox virus 2003-USA-039 infected in african green monkey BSC-40 cells assessed as reduction in virus-induced cytopathic effect at 0.015 uM", "type": "functional, organism-based"}, "[5]": {"tested_on": "Variola virus", "assay": "Antiviral activity against Variola virus SOM77-ali infected in african green monkey BSC-40 cells at 0.05 to 0.5 uM by IHC staining-based plaque reduction assay", "type": "functional, organism-based"}, "[6]": {"tested_on": "Monkeypox virus", "assay": "Antiviral activity against Monkeypox virus infected in african green monkey vero cells assessed as reduction in virus-induced cytopathic effect", "type": "functional, organism-based"}, "[7]": {"tested_on": "Variola virus", "assay": "Antiviral activity against Variola virus SLN68-258 infected in african green monkey BSC-40 cells at 0.005 uM uM by IHC staining-based plaque reduction assay", "type": "functional, organism-based"}, "[8]": {"tested_on": "Monkeypox virus", "assay": "Antiviral activity against Monkeypox virus V1979-I-005 infected in african green monkey BSC-40 cells assessed as reduction in virus-induced cytopathic effect", "type": "functional, organism-based", "conditions": "V1979-I-005, BSC-40"}, "[9]": {"tested_on": "Variola virus", "assay": "Antiviral activity against Variola virus BSH74-sol infected in african green monkey BSC-40 cells at 0.05 to 0.5 uM by IHC staining-based plaque reduction assay", "type": "functional, organism-based"}, "[10]": {"tested_on": "Variola virus", "assay": "Antiviral activity against Variola virus SOM77-ali infected in african green monkey BSC-40 cells at 0.005 uM uM by IHC staining-based plaque reduction assay", "type": "functional, organism-based"}, "[11]": {"tested_on": "Variola virus", "assay": "Antiviral activity against Variola virus BRZ66-39 infected in african green monkey BSC-40 cells at 0.005 uM uM by IHC staining-based plaque reduction assay", "type": "functional, organism-based"}, "[12]": {"tested_on": "Variola virus", "assay": "Antiviral activity against Variola virus SUD47-juba infected in african green monkey BSC-40 cells at 0.05 to 0.5 uM by IHC staining-based plaque reduction assay", "type": "functional, organism-based"}, "[13]": {"tested_on": "Variola virus", "assay": "Antiviral activity against Variola virus SOM77-ali infected in african green monkey BSC-40 cells assessed as reduction in viral plaque formation at 0.015 uM uM by IHC staining-based plaque reduction assay", "type": "functional"}, "[14]": {"tested_on": "Variola virus", "assay": "Antiviral activity against Variola virus BSH74-sol infected in african green monkey BSC-40 cells at 0.05 to 5 uM assessed as reduction in virus-induced cytopathic effect", "type": "functional, organism-based"}, "[15]": {"tested_on": "Variola virus", "assay": "Antiviral activity against Variola virus SLN68-258 infected in african green monkey BSC-40 cells at 0.015 uM by IHC staining-based comet tail reduction assay", "type": "functional, organism-based"}, "[16]": {"tested_on": "Monkeypox virus", "assay": "Antiviral activity against Monkeypox virus V1979-I-005 infected in african green monkey BSC-40 cells at 0.015 uM by IHC staining-based comet tail reduction assay", "type": "functional, organism-based"}, "[17]": {"tested_on": "Variola virus", "assay": "Antiviral activity against Variola virus SUD47-juba infected in african green monkey BSC-40 cells at 0.005 uM uM by IHC staining-based plaque reduction assay", "type": "functional, organism-based"}, "[18]": {"tested_on": "Variola virus", "assay": "Antiviral activity against Variola virus SOM77-ali infected in african green monkey BSC-40 cells at 0.015 uM by IHC staining-based comet tail reduction assay", "type": "functional, organism-based"}, "[19]": {"tested_on": "Monkeypox virus", "assay": "Antiviral activity against Monkeypox virus V81-I-179 infected in african green monkey BSC-40 cells assessed as reduction in virus-induced cytopathic effect at 0.05 to 5 uM", "type": "functional, organism-based"}, "[20]": {"tested_on": "Monkeypox virus", "assay": "Antiviral activity against Monkeypox virus 2003-USA-039 infected in african green monkey BSC-40 cells assessed as reduction in virus-induced cytopathic effect", "type": "functional, organism-based", "conditions": "2003-USA-039, BSC-40"}, "[21]": {"tested_on": "Variola virus", "assay": "microbe, parasite or virus in culture", "conditions": "BRZ66-39, BSC-40"}, "[22]": {"tested_on": "Camelpox virus", "assay": "Antiviral activity against Camelpox virus infected in african green monkey Vero cells assessed as reduction in virus-induced cytopathic effect", "type": "functional, organism-based"}, "[23]": {"tested_on": "Variola virus", "assay": "Antiviral activity against Variola virus NEP73-175 infected in african green monkey BSC-40 cells at 0.015 uM by IHC staining-based comet tail reduction assay", "type": "functional, organism-based"}, "[24]": {"tested_on": "Monkeypox virus", "assay": "Antiviral activity against Monkeypox virus V81-I-179 infected in african green monkey BSC-40 cells assessed as reduction in virus-induced cytopathic effect at 0.005 uM", "type": "functional, organism-based"}, "[25]": {"tested_on": "Variola virus", "assay": "Antiviral activity against Variola virus SLN68-258 infected in african green monkey BSC-40 cells at 0.05 to 0.5 uM by IHC staining-based comet tail reduction assay", "type": "functional, organism-based"}, "[26]": {"tested_on": "Variola virus", "assay": "Antiviral activity against Variola virus SLN68-258 infected in african green monkey BSC-40 cells assessed as reduction in viral plaque formation at 0.015 uM uM by IHC staining-based plaque reduction assay", "type": "functional"}, "[27]": {"tested_on": "Monkeypox virus", "assay": "Antiviral activity against Monkeypox virus V77-I-823 infected in african green monkey BSC-40 cells assessed as reduction in viral plaque formation at 0.015 uM uM by IHC staining-based plaque reduction assay", "type": "functional"}, "[28]": {"tested_on": "Variola virus", "assay": "microbe, parasite or virus in culture", "conditions": "NEP73-175, BSC-40"}, "[29]": {"tested_on": "Monkeypox virus", "assay": "Antiviral activity against Monkeypox virus V81-I-179 infected in african green monkey BSC-40 cells at 0.005 uM by IHC staining-based comet tail reduction assay", "type": "functional, organism-based"}, "[30]": {"tested_on": "Variola virus", "assay": "Antiviral activity against Variola virus BSH74-sol infected in african green monkey BSC-40 cells at 0.005 uM assessed as reduction in virus-induced cytopathic effect", "type": "functional, organism-based"}, "[31]": {"tested_on": "Monkeypox virus", "assay": "Antiviral activity against Monkeypox virus V81-I-179 infected in african green monkey BSC-40 cells at 0.015 uM by IHC staining-based comet tail reduction assay", "type": "functional, organism-based"}, "[32]": {"tested_on": "Variola virus", "assay": "Antiviral activity against Variola virus NEP73-175 infected in african green monkey BSC-40 cells at 0.05 to 0.5 uM by IHC staining-based comet tail reduction assay", "type": "functional, organism-based"}, "[33]": {"tested_on": "Variola virus", "assay": "Antiviral activity against Variola virus SLN68-258 infected in african green monkey BSC-40 cells at 0.015 uM assessed as reduction in virus-induced cytopathic effect", "type": "functional, organism-based"}, "[34]": {"tested_on": "Variola virus", "assay": "Antiviral activity against Variola virus BSH74-sol infected in african green monkey BSC-40 cells at 0.005 uM uM by IHC staining-based plaque reduction assay", "type": "functional, organism-based"}, "[35]": {"tested_on": "Monkeypox virus", "assay": "Antiviral activity against Monkeypox virus V78-I-3945 infected in african green monkey BSC-40 cells at 0.015 uM by IHC staining-based comet tail reduction assay", "type": "functional, organism-based"}, "[36]": {"tested_on": "Monkeypox virus", "assay": "Antiviral activity against Monkeypox virus V78-I-3945 infected in african green monkey BSC-40 cells at 0.005 uM uM by IHC staining-based plaque reduction assay", "type": "functional, organism-based"}, "[37]": {"tested_on": "Variola virus", "assay": "Antiviral activity against Variola virus BRZ66-39 infected in african green monkey BSC-40 cells assessed as reduction in viral plaque formation at 0.015 uM uM by IHC staining-based plaque reduction assay", "type": "functional"}, "[38]": {"tested_on": "Monkeypox virus", "assay": "Antiviral activity against Monkeypox virus V77-I-823 infected in african green monkey BSC-40 cells at 0.005 uM uM by IHC staining-based plaque reduction assay", "type": "functional, organism-based"}},
  "note": "pEC50: −log10 of the molar value. Calls of active or inactive are those of the source. The rule behind the calls is not given here.",
  "data": [
    {"smiles": "O=C(NN1C(=O)[C@@H]2[C@@H]3C=C[C@@H]([C@H]4C[C@@H]34)[C@@H]2C1=O)c1ccc(C(F)(F)F)cc1", "note": "[TECOVIRIMAT]", "values": [
      {"measurement": "Activity", "setting": "[1]", "result": "Active"},
      {"measurement": "Activity", "setting": "[2]", "result": "inactive"},
      {"measurement": "Activity", "setting": "[3]", "result": "Active"},
      {"measurement": "Activity", "setting": "[4]", "result": "Active"},
      {"measurement": "Activity", "setting": "[5]", "result": "Active"},
      {"measurement": "Activity", "setting": "[6]", "result": "Active"},
      {"measurement": "Activity", "setting": "[7]", "result": "inactive"},
      {"measurement": "pEC50", "setting": "[8]", "result": 7.41},
      {"measurement": "Activity", "setting": "[9]", "result": "Active"},
      {"measurement": "Activity", "setting": "[10]", "result": "inactive"},
      {"measurement": "Activity", "setting": "[11]", "result": "inactive"},
      {"measurement": "Activity", "setting": "[12]", "result": "Active"},
      {"measurement": "inhibition (INH)", "setting": "[13]", "result": 50, "unit": "%"},
      {"measurement": "Activity", "setting": "[14]", "result": "Active"},
      {"measurement": "Activity", "setting": "[15]", "result": "Active"},
      {"measurement": "Activity", "setting": "[16]", "result": "Active"},
      {"measurement": "Activity", "setting": "[17]", "result": "inactive"},
      {"measurement": "Activity", "setting": "[18]", "result": "Active"},
      {"measurement": "Activity", "setting": "[19]", "result": "Active"},
      {"measurement": "pEC50", "setting": "[20]", "result": 7.44},
      {"measurement": "pEC50", "setting": "[21]", "result": 7.17},
      {"measurement": "Activity", "setting": "[22]", "result": "Active"},
      {"measurement": "Activity", "setting": "[23]", "result": "Active"},
      {"measurement": "Activity", "setting": "[24]", "result": "inactive"},
      {"measurement": "Activity", "setting": "[25]", "result": "Active"},
      {"measurement": "inhibition (INH)", "setting": "[26]", "result": 50, "unit": "%"},
      {"measurement": "inhibition (INH)", "setting": "[27]", "result": 50, "unit": "%"},
      {"measurement": "pEC50", "setting": "[28]", "result": 7.68},
      {"measurement": "Activity", "setting": "[29]", "result": "inactive"},
      {"measurement": "Activity", "setting": "[30]", "result": "inactive"},
      {"measurement": "Activity", "setting": "[31]", "result": "Active"},
      {"measurement": "Activity", "setting": "[32]", "result": "Active"},
      {"measurement": "Activity", "setting": "[33]", "result": "Active"},
      {"measurement": "Activity", "setting": "[34]", "result": "inactive"},
      {"measurement": "Activity", "setting": "[35]", "result": "Active"},
      {"measurement": "Activity", "setting": "[36]", "result": "inactive"},
      {"measurement": "inhibition (INH)", "setting": "[37]", "result": 50, "unit": "%"},
      {"measurement": "Activity", "setting": "[38]", "result": "inactive"}
    ]}
  ]
}
